# Laboratory results: US5028604A, “Condensed benzene derivative” (Zeria Pharmaceutical Co., Ltd., priority 1988, dated 1991)
# Like-named read-outs stand apart in the source and are kept apart here.
# How the values were obtained:
# [1] = system: ICR male mice; test: Anti-Hypoxic Activity (survival time in 4% O2 + 96% N2); format: in vivo; details: Mus musculus, ip
# Protocol: Groups of ICR male mice (Charles River Co.), age 4 to 5 weeks, each group consisting of 10 mice and each mouse having been fasted for 24 hours, were used for the test. Mice were placed in a transparent desiccator (diameter: 19 cm, height: 30 cm) made of synthetic resin and having 2 valves, one at the upper portion and the other at the lower portion, for replacing the gas therein. A mixed gas (4% O2 +96% N2) was fed from the upper valve at a rate of 10 l/min to measure the period of time until respiratory arrest took place for each mouse. The time measured was taken as the survival time.
# Each tested compound suspended in an solvent was intraperitoneally administered 30 minutes before the start of the mixed gas feeding. A group of mice to which only the solvent was intraperitoneally administered was used as a control.
# The anti-hypoxic activity was determined according to the following formula, [formula]
# [2] = system: CD female rats; test: Anti-Amnesic Activity (passive avoidance, electric convulsive shock); format: in vivo; details: 30 mg/kg P.O., one hour before acquisition trial; ECS; retention trial at 24 hours; solvent + sham 133.0, solvent + ECS 0.8
# Protocol: Compounds of this invention were checked with respect to their abilities to prevent the inhibition of long-term memory fixation by electric convulsive shock (ECS). CD female rats (Charles River), weighed 160-180 g were used for the test. One hour after the administration of a compound of this invention, the acquisition trial according to the passive avoidance training was performed on the rats. A foot shock was given to the rats when they entered into a dark room. Immediately after that an amnesic treatment by ECS or a sham amnesic treatment was performed. Twenty four (24) hours after the acquisition trial the retention trial was performed. Latency of the […] entering into a dark room was measured.
# [3] = molecular target: T1, prolyl endopeptidase from canine brain (Canis lupus familiaris, UniProt A0A8I3N6C8); test: Inhibitory Activity Against Prolyl Endopeptidase From Brain; format: biochemical; details: 37° C., pH 7.0, substrate benzyloxycarbonylglycylprolylparanitroanilide; read-out: Inhibition Potency, IC50
# T1 construct: A prolyl endopeptidase was prepared from canine brains; from tissue; host or cells: canine brain
# Protocol: Following buffer solutions were used for the measurement.
# Buffer A: 20 mM Tris-HCl buffer (pH 7.0)
# Buffer B: Buffer A containing 0.1% gelatin, 1 mM EDTA, and 1 mM 2-mercaptoethanol
# This solution (50 μl) was added to 940 μl of the Buffer A, and the solution thus obtained was left at 37° C. for 10 minutes (This solution is herein referred to as "Enzyme solution"). A mixed solution of 50 μl of the Buffer B and 940 μl of Buffer A was used as a "Correction solution".
# A test compound was dissolved in dimethylsulfoxide, and 10 μl of the solution was added to the Enzyme solution. The mixture was stirred and allowed to stand at 37° C. for 10 minutes. Separately, 10 μl of dimethylsulfoxide was added to the Enzyme solution and was processed in the same manner. The solution thus obtained was served as a "Control solution". The same procedure was carried out on the Correction solution.
# One hundred (100) μl of 2.5 mM benzyloxycarbonylglycylprolylparanitroanilide, which was dissolved with 40% dioxane, was added to each of the above 3 solutions, i.e., the Enzyme solution with the test compound, Control solution, and Correction solution, and the reaction was carried out at 37° C. for 10 minutes.
# Enzyme activities were determined by subtracting the blank value, i.e., the absorbance measured on the Correction solution, from the absorbance of each of the sample solutions and of the Control solution.
# [4] = 100 mg/kg i.p., 30 minutes before mixed gas, control = 100, read-out: Anti-hypoxic Activity
# [5] = read-out: Anti-hypoxic Activity
# T1 sequence (A0A8I3N6C8 1-710): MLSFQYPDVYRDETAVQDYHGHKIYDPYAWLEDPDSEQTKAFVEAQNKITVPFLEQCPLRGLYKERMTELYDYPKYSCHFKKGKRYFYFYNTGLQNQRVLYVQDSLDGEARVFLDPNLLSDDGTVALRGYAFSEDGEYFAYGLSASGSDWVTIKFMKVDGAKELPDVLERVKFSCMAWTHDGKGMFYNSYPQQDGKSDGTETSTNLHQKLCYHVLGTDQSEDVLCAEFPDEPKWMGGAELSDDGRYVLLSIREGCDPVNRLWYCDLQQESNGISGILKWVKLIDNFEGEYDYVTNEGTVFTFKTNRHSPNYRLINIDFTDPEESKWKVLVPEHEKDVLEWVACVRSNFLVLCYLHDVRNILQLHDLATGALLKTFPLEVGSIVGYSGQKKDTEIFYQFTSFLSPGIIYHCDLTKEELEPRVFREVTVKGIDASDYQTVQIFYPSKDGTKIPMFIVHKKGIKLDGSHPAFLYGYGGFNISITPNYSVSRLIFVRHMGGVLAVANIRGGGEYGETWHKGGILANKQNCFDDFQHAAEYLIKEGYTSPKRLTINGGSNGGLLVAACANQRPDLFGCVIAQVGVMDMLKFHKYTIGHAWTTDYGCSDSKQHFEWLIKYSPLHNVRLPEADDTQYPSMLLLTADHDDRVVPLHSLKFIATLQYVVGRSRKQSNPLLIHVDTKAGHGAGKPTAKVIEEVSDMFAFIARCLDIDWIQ
Structure (SMILES),"response vs control in vivo at 100 mg/kg [1, 4] [%]",IC50 [3] [µM],also measured
"O=C(O)[C@@H]1CCCN1C(=O)[C@@H]1CCCN1C(=O)CC1Cc2ccccc2C1 [Example 17, 1-[1-(2-indanylacetyl)-L-prolyl]-L-proline]",137,,
"O=C([C@@H]1CCCN1C(=O)CC1CCc2ccccc2C1)N1CCCC1 (stereo partly drawn) [Example 24, 1-[1-(1,2,3,4-tetrahydronaphthalen-2-ylacetyl)-L-prolyl]pyrrolidine]",235,,
"COC1=C(OC)C(=O)C(CCCCCCCCCCO)=C(C)C1=O [Idebenone, reference compound]",140,,
"O=C([C@@H]1CSCN1C(=O)CC1Cc2ccccc2C1)N1CCSC1 [Example 1, 3-[3-(2-indanylacetyl)-L-thioprolyl]thiazolidine]",131,,Latency to entering into a dark room [2]: 77.0 s
"O=C([C@@H]1CSCN1C(=O)CCCC1Cc2ccccc2C1)N1CCCC1 [Example 26, 1-{3-[4-(indan-2-yl)butanoyl]-L-thioprolyl}pyrrolidine]",291,,
"O=C([C@@H]1CCCN1C(=O)CC1Cc2ccccc2C1)N1CCCC1 [Example 4, 1-[1-(2-indanylacetyl)-L-prolyl]pyrrolidine]",141,,
"O=C([C@@H]1CCCN1C(=O)CC1=Cc2ccccc2C1)N1CCSC1 [Example 18, 3-[1-(2-indenylacetyl)-L-prolyl]thiazolidine]",,0.043,
"O=C([C@H]1CCCCN1C(=O)CC1Cc2ccccc2C1)N1CCCC1 [Example 11, 1-[1-(2-indanylacetyl)-D-piperidine-2-ylcarbonyl]pyrrolidine]",,,"response vs control in vivo at 50 mg/kg ([1]; 50 mg/kg i.p., 30 minutes before mixed gas, control = 100): 141%"
"O=C([C@@H]1CSCN1C(=O)CC1Cc2ccccc2C1)N1CCCC1 [Example 2, 1-[3-(2-indanylacetyl)-L-thioprolyl]pyrrolidine]",127,,
"O=C([C@@H]1CCCCN1C(=O)CC1Cc2ccccc2C1)N1CCCC1 [Example 10, 1-[1-(2-indanylacetyl)-L-piperidine-2ylcarbonyl]pyrrolidine]",,0.049,
"O=C[C@@H]1CCCN1C(=O)[C@@H]1CCCN1C(=O)CC1=Cc2ccccc2C1 [Example 42, 1-[1-(2-indenylacetyl)-L-prolyl]-L-prolinal]",168,0.0013,
"COc1ccc(C(=O)N2CCCC2=O)cc1 [Aniracetam, reference compound]",,> 1000,"response vs control in vivo at 100 mg/kg [1, 5]: 115%; response vs control in vivo at 300 mg/kg [1, 5]: 159%"
"O=C([C@@H]1CCCN1C(=O)CC1=Cc2ccccc2C1)N1CCCC1 [Example 19, 1-[1-(2-indenyl-acetyl)-L-prolyl]pyrrolidine]",155,,
"CC(C)(CO)[C@@H](O)C(=O)NCCCC(=O)O [Calcium hopantenate, reference compound]",,,"response vs control in vivo at 250 mg/kg ([1]; 250 mg/kg i.p., 30 minutes before mixed gas, control = 100): 135%"
"O=C(C1CSCCN1C(=O)CC1Cc2ccccc2C1)N1CCSC1 (racemic) [Example 5, 3-[4-(2-indanylacetyl)-DL-1,4-thiazan-3-ylcarbonyl]thiazolidine]",,0.022,
